The results in this text go back to patent US10092551B2, “Spiro-thiazolones” (Hoffmann-La Roche Inc., priority 2014, dated 2018).

Structures can show the parent of a compound that is named as a salt.

Sequence of human V1a receptor (P37288 whole entry): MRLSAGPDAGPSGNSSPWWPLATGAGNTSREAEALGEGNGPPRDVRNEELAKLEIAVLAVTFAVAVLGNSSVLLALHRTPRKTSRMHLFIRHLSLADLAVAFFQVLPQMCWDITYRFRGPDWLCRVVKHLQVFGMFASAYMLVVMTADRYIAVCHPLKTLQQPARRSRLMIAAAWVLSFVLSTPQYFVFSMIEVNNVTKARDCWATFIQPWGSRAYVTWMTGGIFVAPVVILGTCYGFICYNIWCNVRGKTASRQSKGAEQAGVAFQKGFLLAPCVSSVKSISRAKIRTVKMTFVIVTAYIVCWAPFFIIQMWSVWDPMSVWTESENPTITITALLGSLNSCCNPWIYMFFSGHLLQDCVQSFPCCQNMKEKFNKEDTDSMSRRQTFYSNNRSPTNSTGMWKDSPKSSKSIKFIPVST

The first test concerns the target human V1a receptor (Homo sapiens (Human), UniProt P37288). As to the kind of experiment: human V1a receptor binding studies (3H-Vasopressin, SPA beads). The conditions noted are these: membranes of HEK293 cells transiently transfected with human V1a receptor, Ki by Cheng-Prussoff. The method, then:
The human V1a receptor was cloned by RT-PCR from total human liver RNA. The coding sequence was subcloned in an expression vector after sequencing to confirm the identity of the amplified sequence. […] Cell membranes were prepared from HEK293 cells transiently transfected with the expression vector and grown in 20 liter fermenters with the following protocol.
50 g of cells are re-suspended in 30 ml freshly prepared ice cold Lysis buffer (50 mM HEPES, 1 mM EDTA, 10 mM MgCl2 adjusted to pH=7.4+complete cocktail of protease inhibitor (Roche Diagnostics)). Homogenized with Polytron for 1 min and sonicated on ice for 2×2 minutes at 80% intensity (Vibracell sonicator). The preparation is centrifuged 20 min at 500 g at 4° C., the pellet is discarded and the supernatant centrifuged 1 hour at 43,000 g at 4° C. (19,000 rpm). The pellet is re-suspended in 12.5 ml Lysis buffer+12.5 ml Sucrose 20% and homogenized using a Polytron for 1-2 min. The protein concentration is determined by the Bradford method and aliquots are stored at −80° C. until use. For binding studies 60 mg Yttrium silicate SPA beads (Amersham) are mixed with an aliquot of membrane in binding buffer (50 mM Tris, 120 mM NaCl, 5 mM KCl, 2 mM CaCl2, 10 mM MgCl2) for 15 minutes with mixing. 50 μl of bead/membrane mixture is then added to each well of a 96 well plate, followed by 50 μl of 4 nM 3H-Vasopressin (American Radiolabeled Chemicals). For total binding measurement 100 μl of binding buffer are added to the respective wells, for non-specific binding 100 μl of 8.4 mM cold vasopressin and for compound testing 100 μl of a serial dilution of each compound in 2% DMSO. The plate is incubated 1 h at room temperature, centrifuged 1 min at 1000 g and counted on a Packard Top-Count. Non-specific binding counts are subtracted from each well and data is normalized to the maximum specific binding set at 100%. To calculate an IC 50 the curve is fitted using a non-linear regression model (XLfit) and the Ki is calculated using the Cheng-Prussoff equation.
For `CC(=C1SC(N2CCC3(CC2)OCc2ccccc23)=NC1=O)c1c(C)noc1C` (stereo in doubt) [Example 105, (5E)-5-[1-(3,5-dimethyl-1,2-oxazol-4-yl)ethylidene]-2-(1′H,3H-spiro[2-benzofuran-1,4′-piperidin]-1′-yl)-1,3-thiazol-4(5H)-one], the “pKi hV1a” value amounted to 8.7.
In the case of `C/C(=C1/SC(N2CCC3(CC2)OCc2ccccc23)=NC1=O)c1ccc(Cl)cc1` [Example 1, (5E/Z)-5-[1-(4-chlorophenyl)ethylidene]-2-(1′H,3H-spiro[2-benzofuran-1,4′-piperidin]-1′-yl)-1,3-thiazol-4(5H)-one], the “pKi hV1a” value is given as 8.9.
With `C/C(=C1/SC(N2CCC3(CC2)OCc2cccnc23)=NC1=O)c1ccc(Cl)cc1` [Example 2, (5E/Z)-5-[1-(4-chlorophenyl)ethylidene]-2-(1′H,5H-spiro[furo[3,4-b]pyridine-7,4′-piperidin]-1′-yl)-1,3-thiazol-4(5H)-one], the “pKi hV1a” value stood at 9.0.
Turning to `C/C(=C1/SC(N2CCC3(CC2)OC(=O)c2ccccc23)=NC1=O)c1ccc(Cl)cc1` [Example 3, 1′-{(5E/Z)-5-[1-(4-chlorophenyl)ethylidene]-4-oxo-4,5-dihydro-1,3-thiazol-2-yl}-3H-spiro[2-benzofuran-1,4′-piperidin]-3-one], the “pKi hV1a” value was found to be 9.0.
On to `C/C(=C1/SC(N2CCC3(CC2)OCc2ccncc23)=NC1=O)c1ccc(Cl)cc1` [Example 4, (5E/Z)-5-[1-(4-chlorophenyl)ethylidene]-2-(1H,1′H-spiro[furo[3,4-c]pyridine-3,4′-piperidin]-1′-yl)-1,3-thiazol-4(5H)-one and (5Z)-5-[1-(4-chlorophenyl)ethylidene]-2-(1H,1′H-spiro[furo[3,4-c]pyridine-3,4′-piperidin]-1′-yl)-1,3-thiazol-4(5H)-one], for which the “pKi hV1a” value is given as 9.0.
In the case of `C/C(=C1/SC(N2[C@@H]3CC[C@H]2C[C@@]2(C3)OC(=O)c3ccccc32)=NC1=O)c1ccc(Cl)cc1` [Example 5, 8-{(5E/Z)-5-[1-(4-chlorophenyl)ethylidene]-4-oxo-4,5-dihydro-1,3-thiazol-2-yl}-3′H-spiro[8-azabicyclo[3.2.1]octane-3,1′-[2]benzofuran]-3′-one], the “pKi hV1a” value was 8.9.
Regarding `C/C(=C1/SC(N2CCC3(CC2)OCc2ncccc23)=NC1=O)c1ccc(Cl)cc1` [Example 6, (5E/Z)-5-[1-(4-chlorophenyl)ethylidene]-2-(1′H,7H-spiro[furo[3,4-b]pyridine-5,4′-piperidin]-1′-yl)-1,3-thiazol-4(5H)-one], the “pKi hV1a” value is given as 9.3.
Still for that read-out and setting: the result for `C/C(=C1/SC(N2CCC3(CC2)OCc2ccccc23)=NC1=O)c1ccc(C)nc1` [Example 7, (5E/Z)-5-[1-(6-methylpyridin-3-yl)ethylidene]-2-(1′H,3H-spiro[2-benzofuran-1,4′-piperidin]-1′-yl)-1,3-thiazol-4(5H)-one] reads 8.9; that for `O=C1N=C(N2CCC3(CC2)OCc2ccccc23)S/C1=C\c1ccc(Cl)cc1` [Example 8, (5Z)-5-(4-chlorobenzylidene)-2-(1′H,3H-spiro[2-benzofuran-1,4′-piperidin]-1′-yl)-1,3-thiazol-4(5H)-one], 7.8.
For the molecule `O=C1N=C(N2CCC3(CC2)OCc2ccccc23)S/C1=C\c1ccccc1` [Example 9, (5Z)-5-benzylidene-2-(1′H,3H-spiro[2-benzofuran-1,4′-piperidin]-1′-yl)-1,3-thiazol-4(5H)-one], the “pKi hV1a” value was found to be 8.4.
Still for that read-out and setting: the result for `O=C1N=C(N2CCC3(CC2)OCc2ccccc23)S/C1=C1/CCc2cc(Cl)ccc21` [Example 10, (5E/Z)-5-(5-chloro-2,3-dihydro-1H-inden-1-ylidene)-2-(1′H,3H-spiro[2-benzofuran-1,4′-piperidin]-1′-yl)-1,3-thiazol-4(5H)-one] reads 6.9; that for `O=C1N=C(N2CCC3(CC2)OCc2ccccc23)S/C1=C1/CCCc2cc(Cl)ccc21` [Example 11, (5E/Z)-5-(6-chloro-3,4-dihydronaphthalen-1(2H)-ylidene)-2-(1′H,3H-spiro[2-benzofuran-1,4′-piperidin]-1′-yl)-1,3-thiazol-4(5H)-one], 8.4.
With `C/C(=C1/SC(N2CCC3(CC2)OCc2ccccc23)=NC1=O)c1cccc(Cl)c1` [Example 12, (5E/Z)-5-[1-(3-chlorophenyl)ethylidene]-2-(1′H,3H-spiro[2-benzofuran-1,4′-piperidin]-1′-yl)-1,3-thiazol-4(5H)-one], the “pKi hV1a” value amounted to 8.2.
For `CC/C(=C1/SC(N2CCC3(CC2)OCc2ccccc23)=NC1=O)c1ccc(Cl)cc1` [Example 13, (5E/Z)-5-[1-(4-chlorophenyl)propylidene]-2-(1′H,3H-spiro[2-benzofuran-1,4′-piperidin]-1′-yl)-1,3-thiazol-4(5H)-one], the “pKi hV1a” value was 8.0.
In the case of `C/C(=C1/SC(N2CCC3(CC2)OCc2ccccc23)=NC1=O)c1ccccc1Cl` [Example 14, (5E/Z)-5-[1-(2-chlorophenyl)ethylidene]-2-(1′H,3H-spiro[2-benzofuran-1,4′-piperidin]-1′-yl)-1,3-thiazol-4(5H)-one], the “pKi hV1a” value was determined as 8.5.
In the case of `COCC(COC)=C1SC(N2CCC3(CC2)OCc2ccccc23)=NC1=O` [Example 15, 5-(1,3-dimethoxypropan-2-ylidene)-2-(1′H,3H-spiro[2-benzofuran-1,4′-piperidin]-1′-yl)-1,3-thiazol-4(5H)-one], the “pKi hV1a” value was 8.8.
With `C/C(=C1/SC(N2CCC3(CC2)OCc2ccccc23)=NC1=O)c1ccccc1` [Example 16, (5E/Z)-5-(1-phenylethylidene)-2-(1′H,3H-spiro[2-benzofuran-1,4′-piperidin]-1′-yl)-1,3-thiazol-4(5H)-one], the “pKi hV1a” value is reported as 8.5.
For the molecule `O=C1N=C(N2CCC3(CC2)OCc2ccccc23)S/C1=C(/c1ccc(Cl)cc1)C(F)(F)F` [Example 17, (5Z)-5-[1-(4-chlorophenyl)-2,2,2-trifluoroethylidene]-2-(1′H,3H-spiro[2-benzofuran-1,4′-piperidin]-1′-yl)-1,3-thiazol-4(5H)-one], the “pKi hV1a” value was found to be 8.5.
Turning to `O=C1N=C(N2CCC3(CC2)OCc2ccccc23)S/C1=C(\c1ccc(Cl)cc1)C(F)(F)F` [Example 18, (5E)-5-[1-(4-chlorophenyl)-2,2,2-trifluoroethylidene]-2-(1′H,3H-spiro[2-benzofuran-1,4′-piperidin]-1′-yl)-1,3-thiazol-4(5H)-one], the “pKi hV1a” value is reported as 9.1.
`O=C1N=C(N2CCC3(CC2)OCc2ccccc23)S/C1=C1/CCCc2c(Cl)cccc21` [Example 19, (5E/Z)-5-(5-chloro-3,4-dihydronaphthalen-1(2H)-ylidene)-2-(1′H,3H-spiro[2-benzofuran-1,4′-piperidin]-1′-yl)-1,3-thiazol-4(5H)-one]: the “pKi hV1a” value was determined as 7.7.
As to `O=C1N=C(N2CCC3(CC2)OCc2ccccc23)S/C1=C1/CCCc2ccc(Cl)cc21` [Example 20, (5E/Z)-5-(7-chloro-3,4-dihydronaphthalen-1 (2H)-ylidene)-2-(1′H,3H-spiro[2-benzofuran-1,4′-piperidin]-1′-yl)-1,3-thiazol-4(5H)-one], the “pKi hV1a” value is 9.0.
With `CC(C)(C)/C(=C1/SC(N2CCC3(CC2)OCc2ccccc23)=NC1=O)c1ccc(Cl)cc1` [Example 21, (5E/Z)-5-[1-(4-chlorophenyl)-2,2-dimethylpropylidene]-2-(1′H,3H-spiro[2-benzofuran-1,4′-piperidin]-1′-yl)-1,3-thiazol-4(5H)-one], the “pKi hV1a” value stood at 7.9.
For `O=C1N=C(N2CCC3(CC2)OCc2ccccc23)S/C1=C(\c1ccc(Cl)cc1)C1CC1` [Example 22, (5E/Z)-5-[(4-chlorophenyl)(cyclopropyl)methylidene]-2-(1′H,3H-spiro[2-benzofuran-1,4′-piperidin]-1′-yl)-1,3-thiazol-4(5H)-one], the “pKi hV1a” value worked out at 7.8.
On to `O=C1N=C(N2CCC3(CC2)OCc2ccccc23)S/C1=C(/CF)c1ccc(Cl)cc1` [Example 23, (5E/Z)-5-[1-(4-chlorophenyl)-2-fluoroethylidene]-2-(1′H,3H-spiro[2-benzofuran-1,4′-piperidin]-1′-yl)-1,3-thiazol-4(5H)-one], for which the “pKi hV1a” value stood at 9.4.

Staying with this test, now noted: membranes of HEK293 cells transiently transfected with human V1a receptor, Ki by Cheng-Prussoff, read-out: pKi hV1a (converted).
Take `O=C1N=C(N2CCC3(CC2)OCc2ccccc23)SC1=C1CCCNCC1` (racemic) [Example 81, (5E/Z)-5-(azepan-4-ylidene)-2-(1′H,3H-spiro[2-benzofuran-1,4′-piperidin]-1′-yl)-1,3-thiazol-4(5H)-one hydrochloride]: the Ki is 126 nM.
`NCC(=C1SC(N2CCC3(CC2)OCc2ccccc23)=NC1=O)c1ccccc1` (racemic) [Example 160, (5E/Z)-5-(2-amino-1-phenylethylidene)-2-(1′H,3H-spiro[2-benzofuran-1,4′-piperidin]-1′-yl)-1,3-thiazol-4(5H)-one trifluoroacetate]: the Ki is 5.01 nM.
